# From US20050155119A1, “Chlorophyllous totipotent cell cultures” (Dow AgroSciences LLC, priority 2004, published 2005)
# How the values were obtained:
# green suspension cells = assay: Response of the green maize suspension to streptomycin and spectinomycin; assay type: cell-based
# Brassica juncea = conditions: 100 mg Zn/l (1529 μm) added to soil mixtures; cited from earlier work
# Halophila ovalis = conditions: 10 mg/l of Zn (153 μm); cited from earlier work
# rice = conditions: in vivo; cited from earlier work
# maize = conditions: in vivo; cited from earlier work
# PS-II electron transport = assay: Oxygen electrode determination of photosynthetic electron transport with diuron; assay type: cell-based, maize
# Procedure: The oxygen electrode was set up per manufacturer's instructions by covering the silver electrode with layers of KCl solution, cigarette paper, and PTFE gas permeable membrane. The circulating water bath used to maintain a constant temperature of 24° C. during the course of the experiments. An experiment was initiated by the addition of 1 mL of suspension containing 100 mg of the green suspension cells to the electrode chamber. Oxygen uptake within the chamber was limited by the insertion of a plunger to the level of the liquid, and the flea magnet was turned on to assure adequate mixing during each experiment. Data points were collected by LabVIEW 5.1 and sent to an EXCEL spreadsheet. Data points were collected at a rate of 0.2/sec over 70 scans. […]
# Photosynthetic electron transport was measured with an oxygen electrode in the absence and presence of diuron (DCMU), a PS-II electron transport inhibitor at several concentrations (Figure below). […] A light intensity of 225 μmol M^−2 S^−1 photosynthetic photon flux density was used to drive electron transport, and oxygen evolution was measured polarographically.
# Whether or not Diuron treatment lead to inhibition of oxygen was investigated using an oxygen electrode. To determine amount of photosynthesis occurring in the cells, respiration rates were measured with and without the exposure of the cells to a strong light source. […]
structure (smiles),measurement,setting,value
CN[C@@H]1[C@H](O)[C@H](NC)[C@H]2O[C@@]3(O)C(=O)C[C@@H](C)O[C@H]3O[C@@H]2[C@H]1O [spectinomycin],response of the green suspension,green suspension cells; various spectinomycin concentrations,did not respond
"[Zn] [Zn, Zinc]",phytotoxicity,Brassica juncea,not phytotoxic
same,total chlorophyll concentrations,Halophila ovalis,increase in total chlorophyll concentrations
"[Cu] [Cu, Copper]",critical Cu toxicity level,rice,20 mg/kg
same,No Observable Adverse Effect Level (tissue concentration that did not decrease top growth),maize,40 mg/kg
same,critical Cu toxicity level,maize,20 mg/kg
same,critical level of Cu,maize,21 mg/kg
CN(C)C(=O)Nc1ccc(Cl)c(Cl)c1 [diuron],concentration with greater effect of inhibiting the light reaction of photosynthesis,"PS-II electron transport; 100 mg green suspension in 1 mL, illuminated, oxygen electrode",0.01 M
same,effect on light induced oxygen evolution,"PS-II electron transport; green suspension, FIG. 4",cut down the light induced oxygen evolution
[H]/N=C(/N)N[C@H]1[C@H](O)[C@@H](O)[C@H](O[C@@H]2O[C@@H](C)[C@](O)(C=O)[C@H]2O[C@@H]2O[C@@H](CO)[C@H](O)[C@@H](O)[C@@H]2NC)[C@@H](N/C(N)=N\[H])[C@@H]1O [Streptomycin],plants recovered when germinated in Streptomycin-containing medium,green suspension cells; 62.5 mg/L,albino plants were recovered
same,bleaching of cells,green suspension cells; 125 mg/L,fully bleached
same,plants recovered when germinated in Streptomycin-containing medium,green suspension cells; 125 mg/l (FIG. 2 legend),albino plants were recovered
same,bleaching of cells,green suspension cells; 250 mg/L (FIG. 2 legend),partially bleached
same,appearance of cells,green suspension cells; 500 mg/L,excessive browning and necrosis
same,growth and appearance of green suspension cells,"green suspension cells; 500 mg/l, after ~4 weeks","growth was inhibited, and the cells were bleached or browned and showed excessive necrosis"
